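Tested at 5 concentrations; 48 h exposure; 96-well plates; endpoints linearly interpolated, else capped at highest concentration. At the GI50, growth is halved. TGI denotes the concentration required for complete inhibition of growth.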
Columns and labels:
Test in all cases: NCI anticancer screen, dose series, 48 h
[1] = tested on: A498 renal
[2] = tested on: HL-60(TB) leukemia
[3] = tested on: HT29 colon
[4] = tested on: M14 melanoma
[5] = tested on: MCF7 breast
[6] = tested on: OVCAR-8 ovarian
[7] = tested on: RPMI-8226 leukemia
[8] = tested on: SK-MEL-28 melanoma
[9] = tested on: SNB-75 CNS
[10] = tested on: TK-10 renal

Compound	GI50 [1]	TGI [1]	GI50 [2]	TGI [2]	GI50 [3]	TGI [3]	GI50 [4]	TGI [4]	GI50 [5]	TGI [5]	GI50 [6]	TGI [6]	GI50 [7]	TGI [7]	GI50 [8]	TGI [8]	GI50 [9]	TGI [9]	GI50 [10]	TGI [10]
CCc1c(C)nc2sc3c(N)ncnc3c2c1C	> 25 µM	> 25 µM	> 25000 nM	> 25 µM	> 25 µM	> 25 µM	> 25 µM	> 25 µM	> 25 µM	> 25 µM	> 25000 nM	> 25 µM	> 25000 nM	> 25 µM	> 25 µM	> 25 µM	> 25000 nM	> 25 µM	> 25 µM	> 25 µM
FC(F)(F)c1cccc(-c2nn3ncccc3c2-c2ccnc(Nc3ccc4c(c3)OCCO4)n2)c1	9.59 µM	> 25 µM	11900 nM	> 25 µM	7.32 µM	> 25 µM	17.6 µM	> 25 µM	14.4 µM	> 25 µM	10600 nM	> 25 µM	7880 nM	> 25 µM	> 25 µM	> 25 µM	> 18600 nM	> 25 µM	8.49 µM	> 25 µM
CC1C=CC(OC(=O)C(C)(O)CCC(O)(C(=O)OC2CC(O)C(C(C)C)CC2(C)O)C(C)C)(C(C)C)CC1 (stereo not given)	0.844 µM	2.03 µM	655 nM	1.68 µM	0.599 µM	1.56 µM	0.745 µM	1.81 µM	0.182 µM	0.904 µM	835 nM	2.69 µM	161 nM	0.711 µM	2.1 µM	8.27 µM	542 nM	1.79 µM	0.754 µM	1.5 µM
Cc1[nH]nc(-c2ccon2)c1N=O	–	> 100 µM	–	36.3 µM	–	39.6 µM	–	43.5 µM	–	63.2 µM	–	31.6 µM	–	17.1 µM	–	43.1 µM	–	> 100 µM	–	32.9 µM
Cn1ccnc1Oc1ccc(Cl)cc1	–	46.4 µM	–	11.1 µM	–	26.6 µM	–	37.2 µM	–	38.3 µM	–	22.4 µM	–	2.85 µM	–	27.4 µM	–	51.8 µM	–	32.6 µM
COc1cc(C(=O)c2cc(C)c3[nH]c4ccc(O)cc4c3c2C)cc(OC)c1OC	< 0.01 µM	< 0.0189 µM	24.6 nM	0.0797 µM	0.0276 µM	–	0.0185 µM	> 100 µM	< 0.01 µM	> 44.4 µM	31.7 nM	> 100 µM	22.8 nM	> 100 µM	3.66 µM	> 100 µM	< 10 nM	8.71 µM	4.24 µM	> 100 µM
N/C(=N\OC(=O)c1ccccc1)C(Cc1ccccc1)C(=O)NOC(=O)c1ccccc1 (stereo not given)	11 µM	23.2 µM	2350 nM	6.56 µM	5.24 µM	18.5 µM	3.12 µM	10.8 µM	2.78 µM	10.3 µM	2110 nM	6.53 µM	1740 nM	4.95 µM	7.76 µM	22.6 µM	1620 nM	3.41 µM	2.12 µM	3.76 µM
N#CCCNc1nonc1-c1nc2ccccc2n1CC(=O)c1ccc(NC(=O)[C@@H](N)CCCCN)cc1	0.0154 µM	1.89 µM	31.7 nM	–	0.0326 µM	> 33.3 µM	0.0199 µM	0.0685 µM	0.0302 µM	> 100 µM	55.4 nM	> 100 µM	43.4 nM	> 100 µM	–	–	10.6 nM	> 100 µM	11.9 µM	> 100 µM
Clc1ccc(C2ON=C(c3ccccc3)N2C23CC4CC(CC(C4)C2)C3)cc1 (stereo not given)	–	> 10 µM	–	> 10 µM	–	> 10 µM	–	> 10 µM	–	> 10 µM	–	> 10 µM	–	> 10 µM	–	> 10 µM	–	> 10 µM	–	> 10 µM
CC(=O)O[C@@H]1C[C@@]2(C)[C@@H]3CC=C4[C@@H](C[C@H](O)C(=O)C4(C)C)[C@]3(C)C(=O)C[C@]2(C)[C@H]1[C@@](C)(O)C(=O)/C=C/C(C)(C)OC(C)=O	–	0.0591 µM	–	> 20.1 µM	–	> 100 µM	–	14.9 µM	–	> 100 µM	–	> 49.1 µM	–	> 32.2 µM	–	29.4 µM	–	25.3 µM	–	> 37.8 µM
CC(C)C[C@H](NC(=O)CCn1ccc2ccccc2c1=O)B(O)O	1.22 µM	4.79 µM	2690 nM	49.5 µM	3.68 µM	48.7 µM	4.23 µM	> 100 µM	4.35 µM	> 100 µM	15300 nM	> 100 µM	1060 nM	7.07 µM	3.27 µM	> 100 µM	2940 nM	15.9 µM	2.93 µM	9.8 µM
O=C(O)c1cc(CCc2cc(O)ccc2O)ccc1O	–	> 100 µM	–	77.7 µM	–	> 100 µM	–	> 100 µM	–	> 100 µM	–	> 100 µM	–	> 100 µM	–	> 100 µM	–	> 100 µM	–	> 100 µM
COc1cc2cc(Oc3ccc(NC(=O)c4ccc(Cl)c(Cl)c4)cc3)c(C)nc2cc1OC	20.6 µM	> 100 µM	> 100000 nM	> 100 µM	7.89 µM	> 100 µM	–	–	5.32 µM	> 100 µM	> 100000 nM	> 100 µM	3700 nM	> 100 µM	> 100 µM	> 100 µM	> 100000 nM	> 100 µM	9.81 µM	> 100 µM
CCC(=O)Nc1ccc(N2C(=O)/C(=C/c3ccc(OC)cc3)N=C2c2ccccc2)cc1	10.4 µM	> 50 µM	23700 nM	> 50 µM	5.91 µM	> 50 µM	8.6 µM	43.3 µM	7.77 µM	> 50 µM	7380 nM	> 50 µM	4670 nM	> 50 µM	14.6 µM	> 50 µM	6860 nM	> 50 µM	22.8 µM	> 50 µM
CN1CCN(CCCCCN=c2cc3c(=O)n(CCCCCN4CCN(C)CC4)c(=O)c4c(NCCCCCN5CCN(C)CC5)cc5c(O)n(CCCCCN6CCN(C)CC6)c(=O)c2c5c4-3)CC1	19.2 µM	60 µM	7160 nM	59 µM	1.45 µM	5.31 µM	35 µM	> 100 µM	2.52 µM	7.41 µM	3920 nM	17.2 µM	3020 nM	11.3 µM	2.96 µM	8.14 µM	2660 nM	10.2 µM	10.6 µM	77.2 µM
Cc1cc(C)c(C2CNCc3cc4c(cc32)CNCC4c2c(C)cc(C)cc2C)c(C)c1 (stereo not given)	2.06 µg/mL	4.48 µg/mL	1.81 µg/mL	4.3 µg/mL	2.75 µg/mL	8.35 µg/mL	1.83 µg/mL	3.28 µg/mL	5.42 µg/mL	20.1 µg/mL	2 µg/mL	4.18 µg/mL	2.25 µg/mL	6.92 µg/mL	1.83 µg/mL	3.47 µg/mL	0.526 µg/mL	1.92 µg/mL	3.22 µg/mL	26.9 µg/mL
CNNC(=NS(=O)(=O)c1cc(C#N)c(NNC)cc1S)NNC	–	> 10 µM	–	> 10 µM	–	> 10 µM	–	> 10 µM	–	> 10 µM	–	> 10 µM	–	> 10 µM	–	> 10 µM	–	> 10 µM	–	> 10 µM
C[n+]1c2ccccc2nc2c(N)cc(N)cc21	69.2 µM	> 100 µM	6390 nM	35.8 µM	15.3 µM	> 100 µM	19.1 µM	76.3 µM	5.1 µM	37.3 µM	–	–	4540 nM	33.9 µM	10.3 µM	24.1 µM	5200 nM	18.7 µM	64.9 µM	> 100 µM
CCCCNc1nc(NC2OCC(OC(C)=O)C(OC(C)=O)C2OC(C)=O)c(N=O)c(=O)n1C (stereo not given)	–	> 10 µM	–	> 10 µM	–	> 10 µM	–	> 10 µM	–	> 10 µM	–	> 10 µM	–	> 10 µM	–	> 10 µM	–	> 10 µM	–	> 10 µM
COc1cc(/C=C/c2ccc3c(Br)cc(Br)c(O)c3n2)ccc1O	9.43 µM	21.8 µM	460 nM	2.92 µM	3.86 µM	12.8 µM	1.61 µM	10.6 µM	1.53 µM	12.5 µM	2140 nM	15.5 µM	1210 nM	8.07 µM	3.16 µM	12.9 µM	2500 nM	10.1 µM	3.84 µM	15.5 µM
O=C(CN1N=C(c2ccc(F)cc2)CCC1=O)Nc1nc2ccccc2s1	22.8 µM	> 100 µM	3680 nM	19 µM	3.32 µM	11.5 µM	33.2 µM	> 100 µM	50.1 µM	> 100 µM	788 nM	4.33 µM	2290 nM	6.17 µM	> 100 µM	> 100 µM	17900 nM	> 100 µM	> 100 µM	> 100 µM
C[C@@H]1Cc2cc(O)ccc2[C@H]2CC[C@]3(C)/C(=C/COCCN(C)C)CC[C@H]3[C@H]12 (tested in a mixture with another compound)	0.534 µM	1.59 µM	244 nM	0.628 µM	0.368 µM	1.2 µM	0.381 µM	1.44 µM	< 0.0208 µM	0.612 µM	180 nM	0.364 µM	239 nM	0.694 µM	0.456 µM	1.46 µM	235 nM	0.755 µM	0.209 µM	0.461 µM
O=C(NNS(=O)(=O)c1ccc(Cl)cc1Cl)c1cccnc1Nc1ccc(Cl)cc1	25 µM	47.9 µM	23800 nM	44.4 µM	22.8 µM	54.2 µM	19 µM	38.7 µM	35.2 µM	> 100 µM	26700 nM	74.9 µM	17700 nM	53.2 µM	35.4 µM	> 100 µM	22400 nM	84.4 µM	28.9 µM	84.3 µM
CSc1ccc(C2=NN(C(C)=O)C(c3ccc(-c4ccc(Cl)cc4)o3)C2)cc1 (stereo not given)	26 µM	48 µM	15300 nM	> 100 µM	30.4 µM	> 100 µM	29.8 µM	> 100 µM	39.9 µM	> 100 µM	81700 nM	> 100 µM	23800 nM	> 100 µM	86.2 µM	> 100 µM	25400 nM	> 100 µM	37.3 µM	> 100 µM
Nc1nc(N)c(CCCCc2ccccc2)c(N)n1	–	> 100 µM	–	> 100 µM	–	> 100 µM	–	> 100 µM	–	> 100 µM	–	> 100 µM	–	> 100 µM	–	> 100 µM	–	> 100 µM	–	> 100 µM
Oc1cc(-n2cccn2)c(O)cc1-n1cccn1	–	> 92.2 µM	–	15.6 µM	–	56.2 µM	–	60.4 µM	–	55.1 µM	–	51.9 µM	–	72.1 µM	–	64.9 µM	–	> 97.3 µM	–	49.6 µM
COc1cccc(Oc2ccccc2NC(=O)CNC(=O)c2cccc3ccccc23)c1	0.115 µM	2.11 µM	81 nM	0.237 µM	0.11 µM	1.04 µM	0.157 µM	> 25 µM	0.1 µM	> 25 µM	684 nM	> 25 µM	953 nM	13.7 µM	4.35 µM	> 25 µM	128 nM	> 25 µM	1.58 µM	> 25 µM
O=c1c2cc(F)ccc2sc2c(NCCCNCCO)nc3ccccc3c12	1.67 µM	3.32 µM	2000 nM	4.02 µM	1.75 µM	3.43 µM	1.87 µM	3.62 µM	1.41 µM	2.94 µM	–	–	2080 nM	4.63 µM	1.75 µM	3.25 µM	1500 nM	2.96 µM	1.89 µM	3.53 µM
